The source of these data is patent US20240180876A1, “COMPOSITION FOR INCREASING RED BLOOD CELLS AND/OR HEMOGLOBIN” (SUNTORY HOLDINGS LIMITED, priority 2021, published 2024).

Experiment [1] is described as follows: placebo-controlled, randomized, double-blind, parallel-group human study of red blood cell count, hemoglobin concentration and blood taurine level. The format is in vivo. The settings on record: male and female adults, one capsule with 20 mg L-ergothioneine per day for four weeks, pre-testing to week 4, versus control food group. Here is the method: In order to evaluate the influence of supplements containing ergothioneine on the red blood cell count in the blood, blood hemoglobin concentration, and blood taurine level, a placebo-controlled, randomized, double-blind, parallel-group study was conducted on subjects including male and female adults (46 subjects in a test food group; 46 subjects in a control food group; 92 subjects in total). In this study, one capsule containing 20 mg ergothioneine (test food) or one capsule not containing ergothioneine (control food) was fed per day for four weeks. The red blood cell count in the blood, blood hemoglobin concentration, and blood taurine level of each subject were measured for pre-testing before starting the study (before starting ingestion of the test food or control food). After ingestion of the test food or control food for four weeks, the red blood cell count in the blood, blood hemoglobin concentration, and blood taurine level of each subject were measured again (testing on week 4). The red blood cell count in the blood and blood hemoglobin concentration were measured by known methods. […] Specifically, the amount of change in the test food group at the time of testing on week 4 was determined by subtracting the measurements (average) of the test food group at the time of pre-testing from the measurements (average) of the test food group at the time of testing on week 4. Similarly, the amount of change in the control food group at the time of testing on week 4 was determined by subtracting the measurements (average) at the time of pre-testing from the measurements (average) at the time of testing on week 4. […]

The conditions of experiment [2]: mice orally administered, versus mice not administered; cited from earlier work.

Regarding `C[N+](C)(C)[C@@H](Cc1c[nH]c(=S)[nH]1)C(=O)[O-]` [L-ergothioneine], in experiment [1], the “change in blood hemoglobin concentration” value is reported as “significantly increased”, the “change in blood taurine level (CE-TOF-MS)” value is “significantly increased” and the “change in red blood cell count in the blood” value was “significantly increased”. In experiment [2], the peritesticular fat weight entry was “lower” and the “triglyceride (neutral fat) level in plasma” value is “lower”.
